{"source": "patent US10654838B2", "about": "“Aminopyridine compounds useful as inhibitors of protein prenylation” (INSTITUT NATIONAL DE LA SANTE ET DE LA RECHERCHE MEDICALE …, priority 2014, dated 2020)", "key": {"prelamin A": {"tested_on": "prelamin A", "experiment": "Western immunoblotting of prelamin A", "assay_type": "cell-based, human", "conditions": "HGPS MSCs, optimal concentration"}, "HGPS MSCs [1]": {"tested_on": "HGPS MSCs", "experiment": "Nuclear shape abnormalities (lamin A/C immunostaining)", "assay_type": "cell-based, human", "conditions": "48 h, lamin A/C staining"}, "FPPS": {"target": "T1, FPPS (Homo sapiens, UniProt P14324)", "T1 sequence (P14324 1-419)": "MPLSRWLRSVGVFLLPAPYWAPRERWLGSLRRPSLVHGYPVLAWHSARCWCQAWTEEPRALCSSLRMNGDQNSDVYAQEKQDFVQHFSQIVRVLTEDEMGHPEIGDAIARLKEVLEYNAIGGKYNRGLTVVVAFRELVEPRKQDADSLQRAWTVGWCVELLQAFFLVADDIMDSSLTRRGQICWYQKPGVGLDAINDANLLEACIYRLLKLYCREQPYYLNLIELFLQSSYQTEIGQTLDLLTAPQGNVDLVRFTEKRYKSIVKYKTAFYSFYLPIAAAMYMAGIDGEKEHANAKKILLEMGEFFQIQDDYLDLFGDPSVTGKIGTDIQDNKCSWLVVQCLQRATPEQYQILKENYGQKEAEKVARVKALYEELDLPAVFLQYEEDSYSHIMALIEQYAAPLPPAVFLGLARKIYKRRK", "experiment": "FPPS activity assay", "assay_type": "biochemical", "parameters": "endogenous in cells; host or cells: HGPS MSCs (cell lysate)", "conditions": "concentration inducing 50% of the maximum inhibiting effect of the compound", "protocol": "(§1) Cell pellet of HGPS MSCs were resuspended in 25 mM Tris-HCl pH 7.4, 1 mM DTT, 1 mM MgCl2, 1 EDTA, 1 mM PMSF and centrifuged at 10,000×g for 10 min at 4° C. Protein content was determined using Lowry's method. Aliquots of cell lysate containing 100 μg of total proteins were incubated with tested substances at 37° C. for 30 min.\nFPPS assay was carried out with some modifications of the procedure of Krisans et al. (Krisans et al., 1994, The Journal of biological chemistry VOL. 269: 14165-14169) and described by Gupta et al. (Gupta et al., 1999, Eur J Med Chem, VOL. 43: 2751-2767). Briefly, FPPS was assayed in 150 μL containing 25 mmol/L Hepes, pH=7, 2 mmol/L MgCl2, 1 mmol/L dithiothreitol, 5 mmol/L KF, 1% A noctyl-β-glucopyranoside, 3.3 μmol/L [4-14C] IPP (18 Ci/mmol), 3 μmol/L unlabeled IPP and 20 μmol/L geranyl diphosphate. Reactions were started by adding 40 μL of treated or untreated cell lysate and incubated for 45 min at 37° C. Reactions were stopped by the addition of 150 μL 2.5 mol/L HCl in 80% ethanol containing 100 μg/mL farnesol as a carrier. The samples were hydrolyzed for 30 min at 37° C. to convert the FPP to farnesol and neutralized by the addition of 150 μL of 10% NaOH. The reaction product (farnesol) was extracted into 1 mL of N-hexane and an aliquot (200 μL) of the organic phase was used for radioactivity counting. Parallel samples were assayed to evaluate the total and the nonspecific radioactivity. In all experiments, enzyme assays were carried out in triplicate."}, "HGPS MSCs [2]": {"tested_on": "HGPS MSCs", "experiment": "Live cell imaging (cell density)", "assay_type": "cell-based, human", "conditions": "7 days", "protocol": "HGPS MSCs were seeded at 2500 cells per well in 96-well plates and cultivated during 7 days in presence of the drugs. Cell density was monitored using an IncuCyte ZOOM microscope (Essen Bioscience). Each value corresponds to the mean of cell densities of four pictures taken in three independent wells."}, "HGPS MSCs [3]": {"tested_on": "HGPS MSCs", "experiment": "Osteogenic differentiation (alkaline phosphatase activity)", "assay_type": "cell-based, human", "conditions": "7 days of osteogenic differentiation", "protocol": "MSC were seeded at 600 cells per well in 384 well plate in MSC culture medium and treated as previously described. After 72 hours, MSC medium was replaced by STEMPRO osteogenic induction medium (Invitrogen) in presence or not of the different drugs. After 7 days of treatment, cells were fixed with ethanol 95% and stained by adding either a colorimetric substrate of the alkaline phosphatase, the 5-Bromo-4-chloro-3-indolyl phosphate/Nitro blue tetrazolium (NBT) (Sigma-Aldrich) or a chromogenic substrate of this enzyme (absorbance at 405 nm), the p-Nitrophenyl Phosphate (pNPP) (Pierce Biotechnology)."}, "FT": {"target": "T2, FT (Homo sapiens, UniProt P49354+P49356)", "T2 construct": "Reactions were started by adding 40 μL of treated or untreated cell lysate; endogenous in cells; host or cells: HGPS MSCs (cell lysate)", "experiment": "FT activity assay (Farnesyltransferase [3H] SPA)", "assay_type": "biochemical", "conditions": "concentration inducing 50% of the maximum inhibiting effect of the compound", "protocol": "as §1\nFT activity was determined by Famesyltransferase [3H] SPA enzyme assay (Amersham Life Science, Buckinghamshire, England). Briefly, FT activity was assayed in 20 μl of assay buffer containing 50 mmol/L Hepes, 30 mmol/L MgCl2, 20 mmol/L KCl and 5 mmol/L dithiothreitol, 20 μl of [3H]-FPP (12 pmol) and 20 μl of biotin lamin B. Reactions were started by adding 40 μL of treated or untreated cell lysate and incubated for 1 hour at 37° C. Reactions were stopped by the addition of 150 μL of stop reagent containing SPA bead and counted in a scintillation counter. FT activity was expressed as pmoles of incorporated [3H]-FPP into biotin lamin-B peptide per minute per milligram of total proteins (pmol/min/mg prot). Parallel samples were assayed to evaluate the total and the nonspecific radioactivity. In all experiments enzyme assays were carried out in triplicate."}}}
{"smiles": "N#CC(c1ccccn1)c1ccnc(N2CCN(Cc3ccccc3F)CC2)n1", "note": "(stereo not drawn) [Mono-AP1, {2-[4-(2-fluoro-benzyl)-piperazin-1-yl]-pyrimidin-4-yl}-pyridin-2-yl-acetonitrile]", "values": [{"measurement": "prelamin A level (Western blot)", "setting": "prelamin A", "result": "increased"}, {"measurement": "rescue of nuclear shape abnormalities", "setting": "HGPS MSCs [1]", "result": "restoring HGPS MSCs nuclear shape defects at levels not significantly different from the FTI tipifarnib"}, {"measurement": "IC50", "setting": "FPPS", "result": 1.55, "unit": "µM"}, {"measurement": "cytostatic effect in long term live imaging cultures", "setting": "HGPS MSCs [2]", "result": "less cytostatic than the FTI tipifarnib"}, {"measurement": "rescue of premature osteogenic differentiation (alkaline phosphatase activity)", "setting": "HGPS MSCs [3]", "result": "not significantly different to those observed following FTI treatment"}, {"measurement": "IC50", "setting": "FT", "result": 3.46, "unit": "µM"}]}
